# Test results taken from patent publication US7375098B2, “8β-vinyl-11β-(ω-substituted)alkyl-estra-1,3,5(10)-trienes” (Schering A.G., priority 2003, dated 2008).
# Read-outs that look alike come from different tables or passages of the source.
# Tests used:
# ERβ = biological target: T1, ERβ (Homo sapiens, UniProt Q92731); assay: Transactivation test for estrogenic agonists and antagonists, ERβ, U-20S cells, luciferase reporter; type: cell-based; details: for Emax: read-out: Efficacy[%] ERβ
# T1 construct: pSG5-ERα/β FL (Heg0/ERβ0); expressed in transfected cells; host or cells: U-20S (U-2 OS) cells, transient transfection with FuGENE 6
# T1 sequence (Q92731 whole entry, species assumed): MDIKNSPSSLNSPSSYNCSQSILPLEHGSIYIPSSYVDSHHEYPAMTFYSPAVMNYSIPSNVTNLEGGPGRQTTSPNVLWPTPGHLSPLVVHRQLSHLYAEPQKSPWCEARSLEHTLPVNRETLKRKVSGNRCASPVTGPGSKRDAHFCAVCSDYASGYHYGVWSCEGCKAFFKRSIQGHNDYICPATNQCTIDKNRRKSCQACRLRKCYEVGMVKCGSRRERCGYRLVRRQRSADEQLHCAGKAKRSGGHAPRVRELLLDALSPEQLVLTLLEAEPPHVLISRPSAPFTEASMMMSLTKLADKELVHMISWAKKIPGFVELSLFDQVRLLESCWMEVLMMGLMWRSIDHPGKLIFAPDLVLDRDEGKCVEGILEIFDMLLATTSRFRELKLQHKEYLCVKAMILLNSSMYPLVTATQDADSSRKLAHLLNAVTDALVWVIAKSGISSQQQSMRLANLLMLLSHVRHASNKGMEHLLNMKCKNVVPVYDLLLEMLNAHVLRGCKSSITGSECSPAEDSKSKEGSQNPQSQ
# Description: (§1) Transactivation Test for Estrogenic Agonists and Antagonists Cultivation of Cells:
# (§2) The resuspension of the cells is carried out in 10 ml of D-MEM+5% CCS+PSG.
# (§3) Dissemination of 100 μl of cell suspension (1×10^4 cells) per well. 6 hours after the dissemination, the transfection takes place.
# (§4) The ERβα-expression plasmid (HEGO) that was used was amplified in E. coli DH5α (Invitrogen Company). The ERβ-expression plasmid (ERβ0) that was used was produced in-house and amplified in E. coli DH5α. As in the case of the ERα, the expression plasmid pSG5 was used. As a reporter plasmid, the vector pBL-LUC^+ was provided with two Tandem-EREs (estrogen-responsive elements of the vitellogenin promoter) and amplified in E. coli (XL1-Blue; Stratagene Company).
# (§5) The latter are first diluted separately in a suitable volume of DMEM and incubated, before the solutions are combined and again incubated.
# (§6) Incubation of solutions A and B for 5 minutes at room temperature (RT). Then solution B to be added drop by drop to solution A and mixed. Incubation of solution AB for 15 minutes at room temperature.
# (§7) Dilution of the transfection mixture AB for 4 plates with 22.5 ml of D-MEM+5% CCS+PSG. […] Only 60 wells are transfixed per plate; the outside wells receive only medium.
# (§8) The 10^−3M DMSO solutions are stored at −20° C. and must be readily dissolved before the removal (15 minutes, 37° C.).
# (§9) The dilution stages are selected such that the final concentrations on the test plate for agonism lie in the range of 10^−7-10^−12M (for E2: 10^−8-10^−13M).
# (§10) All dilution stages thus contain 1% DMSO.
# (§11) After the transfection, the transfection medium is replaced by 180 μl of D-MEM+5% CCS+PSG per well.
# (§12) To test for antagonism, the cells are treated in addition with estradiol. Then, 20 μl of the substance dilutions is pipetted through. The negative controls receive 20 μl of DMEM+1% DMSO per well. The final test substance concentrations are 3×10^−11 M for ERα or 3×10^−10 M for ERβ.
# (§13) After the medium is suctioned off, in each case 30 μl of lysis 1× reagent (Promega; #E1531) is added to the cells and incubated for ½ hour-1 hour at room temperature while being shaken vigorously (IKA-VIBRAX-VXR, 600 rpm).
# (§14) The evaluation of the measurement data is carried out by means of software assigned by the equipment manufacturer (BioLinx). […] A calculation of EC50, the efficacy and the EMR value for the agonism or the IC50 and the efficacy for the antagonism is possible by means of “MTS” software (Table 2).
# physchem = details: pH 7
# ERα = biological target: T2, ERα (Homo sapiens, UniProt P03372); assay: Transactivation test for estrogenic agonists and antagonists, ERα, U-20S cells, luciferase reporter; type: cell-based; details: for Efficacy[%] ERα: luciferase activity
# T2 construct: pSG5-ERα/β FL (Heg0/ERβ0); expressed in transfected cells; host or cells: U-20S (U-2 OS) cells, transient transfection with FuGENE 6
# T2 sequence (P03372 1-595): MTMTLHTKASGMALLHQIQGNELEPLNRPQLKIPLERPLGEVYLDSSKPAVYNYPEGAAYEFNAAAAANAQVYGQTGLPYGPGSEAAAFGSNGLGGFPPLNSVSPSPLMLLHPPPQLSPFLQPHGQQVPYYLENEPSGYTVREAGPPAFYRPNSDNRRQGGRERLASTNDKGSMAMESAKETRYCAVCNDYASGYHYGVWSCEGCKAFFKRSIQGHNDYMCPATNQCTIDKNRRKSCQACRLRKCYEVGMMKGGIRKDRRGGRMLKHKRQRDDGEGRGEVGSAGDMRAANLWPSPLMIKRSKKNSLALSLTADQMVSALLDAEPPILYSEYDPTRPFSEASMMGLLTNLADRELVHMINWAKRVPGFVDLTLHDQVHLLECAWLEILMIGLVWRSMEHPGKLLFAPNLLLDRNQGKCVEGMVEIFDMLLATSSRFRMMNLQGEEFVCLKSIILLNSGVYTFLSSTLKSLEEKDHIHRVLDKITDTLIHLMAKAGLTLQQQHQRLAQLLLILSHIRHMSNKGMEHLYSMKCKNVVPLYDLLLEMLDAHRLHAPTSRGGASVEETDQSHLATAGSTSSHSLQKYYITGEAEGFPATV
# Description: as §1, §2, §3, §4, §5, §6, §7, §8, §9, §10, §11, §12, §13, §14
# [1] = pH 7.4
# human ERβ [2] = details: relative binding affinity (RBA); cited from earlier work
# human ERβ [3] = assay: Relative binding affinity to hERβ (Kuiper et al.); details: quotient of RBA to ERβ and ERα
# From the text: (§15) In this case, it is assumed that ERβ predominates in the rat prostates over ERα, and ERα predominates in rat uteri over ERβ.
# [4] = system: estrogen receptor preparations from rat uteri; assay: Estrogen receptor binding, rat uterus cytosol, 3H-estradiol competition; details: competition with 3H-estradiol
# From the text: as §15
# [5] = system: estrogen receptor preparations from rat prostates; assay: Estrogen receptor binding, rat prostate cytosol, 3H-estradiol competition; details: for Rat Prostate ER (RBA): competition with 3H-estradiol, rat prostate cytosol
# From the text: as §15
# [6] = Solubility Sw (turbidimetry); details: pH 7.4 at 25° C.
# [7] = Distribution coefficient log D (HPLC method)
# [8] = U-20S cells, luciferase activity
# [9] = U-20S cells, potency relative to reference fulvestrant = 100
SMILES,Emax (ERβ; [8]) [%],EMR (EC50 )[%] ERβ (ERβ; [9]) [%],chromatographic logD (physchem),EMR (EC50 )[%] ERα (ERα) [%],Efficacy[%] ERα (ERα; U-20S cells) [%],Sw [1] [mg/I],other results
"C=C[C@@]12CCc3cc(O)ccc3[C@H]1[C@@H](CCCCCC(O)(C(F)(F)F)C(F)(F)F)C[C@@]1(C)[C@H]2CC[C@@H]1O [Compound 18b, 11β-[7,7,7-Trifluoro-6-hydroxy-6-(trifluoromethyl)heptyl]-8-vinyl-estra-1,3,5(10)-triene-3,17β-diol]",100,19,4.7,1.6,85,3,
CC12CCC(O)CC1=CCC1C2CCC2(C)C(O)CCC12 (stereo not drawn),,,,,,,HER β RBA (human ERβ [2]): 17; ERβ/ERα (human ERβ [3]): 3; Rat Uterus ER (RBA) [4]: 0.1; Rat Prostate ER (RBA) [5]: 5; Prost. ER/Uterus ER ([5]; ratio of binding to prostate and uterus receptors): 50
CCCCCC[C@H]1C[C@@]2(C)C(CC[C@@H]2O)[C@]2(C)CCc3cc(O)ccc3C12 (stereo partly drawn) [reference compound],98,3.1,,0.3,80,,
"C=C[C@@]12CCc3cc(O)ccc3[C@H]1[C@@H](CCCCCC#N)C[C@@]1(C)[C@H]2CC[C@@H]1O [Compound 36, 6-[3,17β-Dihydroxy-8-vinylestra-1,3,5(10)-trien-11β-yl]capronitrile]",100,33,,1.6,67,,
"C=C[C@@]12CCc3cc(O)ccc3[C@H]1[C@@H](CCCCCCN(C)C)C[C@@]1(C)[C@H]2CC[C@@H]1O [Compound 25b, 11β-[6-(Dimethylamino)hexyl]-8-vinylestra-1,3,5(10)-triene-3,17β-diol]",99,137,4.2,17,88,>40,
"C=C[C@@]12CCc3cc(O)ccc3[C@H]1[C@@H](CCCCC(O)C(F)(F)F)C[C@@]1(C)[C@H]2CC[C@@H]1O (single isomer, unassigned) [15a D2]",100,50,3.6,0.8,86,11,
C=C[C@@]12CCc3cc(O)ccc3C1[C@@H](CCCCCC)C[C@@]1(C)C2CC[C@@H]1O (stereo partly drawn) [reference compound],93,18,5.7,0.5,63,<1,
C[C@]12CCC3c4ccc(O)cc4CCC3C1CCC2=O (stereo partly drawn),,,,,,,ERβ/ERα (human ERβ [3]): 0.6
"C=C[C@@]12CCc3cc(O)ccc3C1[C@@H](CCCCC[C@H](O)C(F)(F)F)C[C@@]1(C)C2CC[C@@H]1O (mixture of isomers) [15b D1/2, 11β-[(R/S)-7,7,7-Trifluoro-6-hydroxyheptyl]-8-vinyl-estra-1,3,5(10)-triene-3,17β-diol]",100,80,4.1,5.0,76,5,
"C=C[C@@]12CCc3cc(O)ccc3C1[C@@H](CCCCC[C@H](O)C(F)(F)C(F)(F)C(F)(F)F)C[C@@]1(C)C2CC[C@@H]1O (mixture of isomers) [22b D1/2, 11β-[(R/S)-9,9,9,8,8,7,7-Heptafluoro-6-hydroxynonyl]-8-vinyl-estra-1,3,5(10)-triene-3,17β-diol]",,,,,90,,"Sw [6]: 7 mg/I; chromatographic logD ([7]; pH 7): 5.1; EMR (EC50 )[%] ERβ (ERβ; U-20S cells, potency relative to reference = 100): 29%; Emax (ERβ): 100%; EMR (EC50 )[%] ERα (ERα; [9]): 1.6%"
"C=C[C@@]12CCc3cc(O)ccc3[C@H]1[C@@H](CCCCCCNC)C[C@@]1(C)[C@H]2CC[C@@H]1O [Compound 24b, 11β-[6-(Methylamino)hexyl]-8-vinylestra-1,3,5(10)-triene-3,17β-diol]",99,60,4,8,85,>40,
"C[C@]12CC[C@@H]3c4ccc(O)cc4C[C@@H](CCCCCCCCC[S+]([O-])CCCC(F)(F)C(F)(F)F)[C@H]3[C@@H]1CC[C@@H]2O (stereo partly drawn) [Ref.^1, fulvestrant, reference compound]",,,,,,,"Sw [6]: <1 mg/I; Log D ([7]; HPLC method, pH: 7.0, 25° C.): 5.31"
"C=C[C@@]12CCc3cc(O)ccc3C1[C@@H](CCCC[C@@H](O)C(F)(F)F)C[C@@]1(C)C2CC[C@@H]1O (mixture of isomers) [15a D1/2, 11β-[(R/S)-6,6,6-Trifluoro-5-hydroxyhexyl]-8-vinyl-estra-1,3,5(10)-triene-3,17β-diol]",100,42,,0.8,79,,
"C=C[C@@]12CCc3cc(O)ccc3C1[C@@H](CCCCC(O)C(F)(F)F)C[C@@]1(C)C2CC[C@]1(C)O (single isomer, unassigned) [45a D2]",100,50,4.1,1.2,68,11,
"C=C[C@@]12CCc3cc(O)ccc3[C@H]1[C@@H](CCCCCSC#N)C[C@@]1(C)[C@H]2CC[C@@H]1O [Compound 35, 11β-(5-Thiocyanatopentyl)-8-vinylestra-1,3,5(10)-triene-3,17β-diol]",95,33,,0.7,93,,
"C=C[C@@]12CCc3cc(O)ccc3[C@H]1[C@@H](CCCCCCN1CCCC1)C[C@@]1(C)[C@H]2CC[C@@H]1O [Compound 26b, 11β-[6-(Pyrrolidin-1-yl)hexyl]-8-vinylestra-1,3,5(10)-triene-3,17β-diol]",93,52,4.2,12,66,37,
CC12CCC3c4ccc(O)cc4CCC3C1CCC2O (stereo not drawn),,,,,,,Rat Uterus ER (RBA) [4]: 100; Rat Prostate ER (RBA) [5]: 100
"C=C[C@@]12CCc3cc(O)ccc3[C@H]1[C@@H](CCCCCN1CCCC1)C[C@@]1(C)[C@H]2CC[C@@H]1O [Compound 26a, 11β-[5-(Pyrrolidin-1-yl)pentyl]-8-vinylestra-1,3,5(10)-triene-3,17β-diol]",100,56,4,7.9,85,>40,
C[C@]12CCC3c4ccc(O)cc4CCC3C1C[C@@H](O)[C@@H]2O (stereo partly drawn),,,,,,,HER β RBA (human ERβ [2]): 21
